Assay results reported in patent US8835426B2, “Cyclic urea and carbamate inhibitors of 11β-hydroxysteroid dehydrogenase 1” (Vitae Pharmaceuticals, Inc., priority 2007, dated 2014).
pIC50: −log10 of the molar value.

Key:
[1] = biological target: T1, purified 11β-HSD1 (recombinant, expressed in E. coli) (Homo sapiens, UniProt P28845); test: Inhibition of purified 11β-HSD1, Scintillation Proximity Assay; assay type: biochemical; settings: recombinant enzyme, 3H cortisone, NADPH, room temperature
T1 construct: made in house; host or cells: E. coli
T1 sequence (P28845 whole entry): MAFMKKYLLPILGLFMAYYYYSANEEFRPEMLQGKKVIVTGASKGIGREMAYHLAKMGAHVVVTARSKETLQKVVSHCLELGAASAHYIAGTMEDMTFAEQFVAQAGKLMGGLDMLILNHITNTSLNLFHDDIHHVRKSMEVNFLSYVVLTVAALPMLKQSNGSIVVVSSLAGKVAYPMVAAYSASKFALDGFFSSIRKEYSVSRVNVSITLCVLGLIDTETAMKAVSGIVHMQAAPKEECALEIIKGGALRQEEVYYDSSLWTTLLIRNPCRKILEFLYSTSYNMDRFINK
Procedure: (§1) The inhibition of purified 11β-HSD1 by compounds of Formula I was measured as follows using a Scintillation Proximity Assay. All reactions were carried out at room temperature in 96 well flexible Microbeta reaction plates. The assay begins by adding 1 microliter of a 0.1 mM solution of a compound of Formula I in DMSO previously diluted in half-log increments (8 points) starting at 1 micromolar final concentration. To this dot was added 50 microliters of substrate solution (50 mM HEPES, pH 7.4, 100 mM KCl, 5 mM NaCl, 2 mM MgCl2 containing […] of ^3H cortisone, 1 mM NADPH). After a 10 minute incubation, 50 microliters of enzyme solution containing 20 nM recombinant 11β-HSD1 (expressed in E. coli, and affinity purified) was added, The reaction was incubated for 90 minutes, and stopped by adding 50 microliters of SPA bead mix (18-β-glycyrrhetinic acid, 10 micromolar final, 5 mg/ml protein A coated YSi SPA beads, and 1-microgram/ml alpha-cortisol antibody (East Coast Biologics). The plate shaken for 120 minutes, and the radioactivity corresponding to ^3H cortisol was measured on a Wallac Microbeta.

[2] = biological target: T2, 11β-HSD1 in whole cells (omental adipocytes) (Homo sapiens, UniProt P28845); test: Inhibition of 11β-HSD1 in whole cells (omental adipocytes), cortisone to cortisol conversion, SPA; assay type: cell-based; settings: 100 nM [3H] cortisone, 37 degrees C
T2 construct: host or cells: omental adipocytes differentiated from preadipocytes
T2 sequence (P28845 whole entry): as above
Procedure: The inhibition of 11β-HSD1 by compounds of Formula I in whole cells was measured as follows. Omental adipocytes cultured in 96-well plates were purchased from Zen-Bio, Inc. and used at least two weeks after differentiation from precursor preadipocytes started in medium supplemented with adipogenic and lipogenic hormones (human insulin, dexamethasone, isobutylmethylxanthine and PPAR-gamma agonist). The cells were maintained in full adipocyte medium (DMEM/Ham's F-12 (1:1, v/v), HEPES pH 7.4, fetal bovine serum, penicillin, streptomycin and Amphotericin B, supplied by Zen-Bio, Inc.) at 37 degrees C., 5% CO2 and transferred into serum-free, phenol red free medium for overnight incubation. The assay was performed in a total volume of 200 microliters. The cells were pre-incubated with serum-free, phenol red free medium containing 0.1% (v/v) of DMSO and various concentrations of compounds of Formula I at least 1 h before [^3H] cortisone in ethanol (50 Ci/mmol, ARC, Inc.) was added to achieve final concentration of cortisone of 100 nM. The cells were incubated for 3-4 at 37 degrees Centigrade, 5% CO2. Negative controls were incubated without radioactive substrate and received the same amount of [^3H] cortisone at the end of the incubation. Formation of [^3H] cortisol was monitored by analyzing 25 microliters of each supernatant in scintillation proximity assay (SPA). (Solly, K.; Mundt, S. S.; Zokian, H. J.; Ding, G. J.; Hermanowski-Vosatka, A.; Strulovici, B.; Zheng, W. Assay Drug Dev. Technol. 2005, 3, 377-384),

[3] = biological target: microsomal 11β-HSD1 (Homo sapiens, UniProt P28845); test: Inhibition of microsomal 11β-HSD1, Scintillation Proximity Assay; assay type: biochemical; settings: microsomal enzyme, same manner as purified enzyme assay
Chain of microsomal 11β-HSD1 (P28845 whole entry): as above
Procedure: as §1
The inhibition of microsomal 11β-HSD1 was carried out in the same manner.

SMILES | pIC50 [1] | pIC50 [2] | pIC50 [3]
CC(C)C[C@H]1CN(CC23CC4CC(CC(C4)C2)C3)C(=O)O1 [Example 2, (S)-3-((1-adamantyl)methyl)-5-isobutyloxazolidin-2-one] | > 7.30 | 6.00 to 7.30 | –
O=C1O[C@@H](Cc2ccccc2)CN1CC12CC3CC(CC(C3)C1)C2 [Example 6, (S)-5-benzyl-3-((1-adamantyl)methyl)oxazolidin-2-one] | 6.00 to 7.30 | – | –
CC(C)C[C@H]1CN(C2C3CC4CC2CC(O)(C4)C3)C(=O)O1 (single isomer, unassigned) [Example 13A] | 6.00 to 7.30 | – | –
C[C@]1(c2ccccc2)CN(C2C3CC4CC(C3)CC2C4)C(=O)O1 (stereo partly drawn) [Example 16, (S)-3-(2-adamantyl)-5-methyl-5-phenyloxazolidin-2-one] | > 7.30 | > 7.30 | –
O=C1O[C@H](C2CCCCC2)CN1C1C2CC3CC(C2)CC1C3 (stereo partly drawn) [Example 21, (R)-3-(2-adamantyl)-5-cyclohexyloxazolidin-2-one] | > 7.30 | > 7.30 | –
O=C1OC(c2cccc(-c3ccccc3)c2)CN1C1C2CC3CC(C2)CC1C3 (racemic) [Example 37, (±)-5-(biphenyl-3-yl)-3-(2-adamantyl)oxazolidin-2-one] | – | 6.00 to 7.30 | > 7.30
O=C1OC(C2CCC(O)CC2)CN1CC12CC3CC(CC(C3)C1)C2 (single isomer, unassigned) [Example 22B, 3-(1-adamantylmethyl)-5-(4-hydroxycyclohexyl)oxazolidin-2-one] | 6.00 to 7.30 | – | –
O=C1O[C@@H](c2ccccc2)CN1CC1C2CC3CC(C2)CC1C3 (stereo partly drawn) [Example 11, (S)-3((2-adamantyl)methyl)-5-phenyloxazolidin-2-one] | 6.00 to 7.30 | – | –
O=C1OC(c2ccc(-c3ccccc3)cc2)CN1C1C2CC3CC(C2)CC1C3 (racemic) [Example 38, (±)-5-(biphenyl-4-yl)-3-(2-adamantyl)oxazolidin-2-one] | – | – | > 7.30
O=C1O[C@@H](C2CCCCC2)CN1CC12CC3CC(CC(C3)C1)C2 [Example 18, (S)-3-((1-adamantyl)methyl)-5-cyclohexyloxazolidin-2-one] | > 7.30 | 6.00 to 7.30 | –
CC(C)CC1(CO)CN(C2C3CC4CC(C3)CC2C4)C(=O)N1 (racemic) [Example 35, (±)-1-(2-adamantyl)-4-(hydroxymethyl)-4-isobutylimidazolidin-2-one] | – | – | > 7.30
O=C1O[C@H](c2ccccc2)CN1C1C2CC3CC(C2)CC1C3 (stereo partly drawn) [Example 15, (R)-3-(2-adamantyl)-5-phenyloxazolidin-2-one] | 6.00 to 7.30 | – | –
O=C1OC(c2cccc(Br)c2)CN1C1C2CC3CC(C2)CC1C3 (racemic) [Example 34, (±)-5-(3-bromophenyl)-3-(2-adamantyl)oxazolidin-2-one] | – | – | > 7.30
O=C1O[C@@H](c2ccccc2)CN1C1C2CC3CC(C2)CC1C3 (stereo partly drawn) [Example 14, (S)-3-(2-adamantyl)-5-phenyloxazolidin-2-one] | 6.00 to 7.30 | – | –
CC[C@H]1CN(CC23CC4CC(CC(C4)C2)C3)C(=O)O1 [Example 10, (S)-3-((1-adamantyl)methyl)-5-ethyloxazolidin-2-one] | 6.00 to 7.30 | – | –
CC(C)(C)[C@H]1CN(CC23CC4CC(CC(C4)C2)C3)C(=O)O1 [Example 8, (S)-3-((1-adamantyl)methyl)-5-(t-butyl)oxazolidin-2-one] | > 7.30 | > 7.30 | –
CC1CCN(CC23CC4CC(CC(C4)C2)C3)C(=O)O1 (stereo not drawn) [Example 26, 3-((1-adamantyl)methyl)-6-methyl-1,3-oxazinan-2-one] | 6.00 to 7.30 | – | –

Results, then the compound that gave them:

pIC50 [1] | pIC50 [2] | pIC50 [3] | SMILES
> 7.30 | 6.00 to 7.30 | – | O=C1O[C@@H](c2ccccc2Cl)CN1CC12CC3CC(CC(C3)C1)C2 [Example 7, (S)-3-((1-adamantyl)methyl)-5-(2-chlorophenyl)oxazolidin-2-one]
– | > 7.30 | > 7.30 | CC(C)[C@H]1CN(C2C3CC4CC(C3)CC2C4)C(=O)N1 (stereo partly drawn) [Example 33, (S)-4-isopropyl-1-(2-adamantyl)imidazolidin-2-one]
– | > 7.30 | > 7.30 | CC(C)(C)C1CCN(C2C3CC4CC(C3)CC2C4)C(=O)N1 (racemic) [Example 31, (±)-4-tert-butyl-1-(2-adamantyl)tetrahydropyrimidin-2(1H)-one]
– | – | 6.00 to 7.30 | CC(C)CC1(CO)CN(CC23CC4CC(CC(C4)C2)C3)C(=O)N1 (racemic) [Example 36, (±)-1-(1-adamantylmethyl)-4-(hydroxymethyl)-4-isobutylimidazolidin-2-one]
< 6.00 | – | – | CC(C)C[C@H]1CN(C2C3CC4CC2CC(O)(C4)C3)C(=O)O1 (single isomer, unassigned) [Example 13B]
> 7.30 | > 7.30 | – | CC(C)C[C@H]1CN(C23CC4CC(CC(C4)C2)C3)C(=O)O1 [Example 4, (S)-3-(1-adamantyl)-5-isobutyloxazolidin-2-one]
> 7.30 | > 7.30 | – | CC(C)(C)[C@H]1CN(C2C3CC4CC(C3)CC2C4)C(=O)N1 (stereo partly drawn) [Example 27, (S)-1-(2-adamantyl)-4-tert-butylimidazolidin-2-one]
– | > 7.30 | > 7.30 | O=C1N[C@@H](C2CCCCC2)CN1C1C2CC3CC(C2)CC1C3 (stereo partly drawn) [Example 32, (S)-4-cyclohexyl-1-(2-adamantyl)imidazolidin-2-one]
> 7.30 | > 7.30 | – | C[C@@H]1[C@H](c2ccccc2)OC(=O)N1CC12CC3CC(CC(C3)C1)C2 [Example 25, (4R,5S)-3-((1-adamantyl)methyl)-4-methyl-5-phenyloxazolidin-2-one]
> 7.30 | > 7.30 | > 7.30 | CN1C(=O)N(C2C3CC4CC(C3)CC2C4)C[C@@H]1C(C)(C)C (stereo partly drawn) [Example 28, (S)-1-(2-adamantyl)-4-tert-butyl-3-methylimidazolidin-2-one]
– | 6.00 to 7.30 | > 7.30 | O=C1N[C@@H](c2ccccc2)CN1C12CC3CC(CC(C3)C1)C2 [Example 30, (S)-1-(1-adamantyl)-4-phenylimidazolidin-2-one]
– | – | > 7.30 | O=C1OC(c2ccc(Br)cc2)CN1C1C2CC3CC(C2)CC1C3 (racemic) [Example 29, (±)-5-(4-bromophenyl)-3-(2-adamantyl)oxazolidin-2-one]
6.00 to 7.30 | – | – | O=C1OC(c2ccc(O)cc2)CN1CC12CC3CC(CC(C3)C1)C2 (stereo not drawn) [Example 17, 3-(1-adamantylmethyl)-5-(4-hydroxyphenyl)oxazolidin-2-one]
> 7.30 | 6.00 to 7.30 | – | O=C1O[C@@H](c2ccccc2)CN1CC12CC3CC(CC(C3)C1)C2 [Example 1, (S)-3-((1-adamantyl)methyl)-5-phenyloxazolidin-2-one]
> 7.30 | > 7.30 | – | CC(C)C[C@H]1CN(C2C3CC4CC(C3)CC2C4)C(=O)O1 (stereo partly drawn) [Example 5, (S)-3-(2-adamantyl)-5-isobutyloxazolidin-2-one]
6.00 to 7.30 | – | – | CC(C)CC1CCN(CC23CC4CC(CC(C4)C2)C3)C(=O)O1 (stereo not drawn) [Example 23, 3((1-adamantyl)methyl)-6-isobutyl-1,3-oxazinan-2-one]
6.00 to 7.30 | – | – | O=C1OC(c2cccc(Cl)c2)CN1CC12CC3CC(CC(C3)C1)C2 (racemic) [Example 9, (±)-3((1-adamantyl)methyl)-5-(3-chlorophenyl)oxazolidin-2-one]
6.00 to 7.30 | – | – | O=C1N[C@H](CO)CN1CC12CC3CC(CC(C3)C1)C2 [Example 24, (S)-1-((1-adamantyl)methyl)-4-(hydroxymethyl)imidazolidin-2-one]
6.00 to 7.30 | – | – | O=C1O[C@H](c2ccccc2)CN1CC12CC3CC(CC(C3)C1)C2 [Example 3, (R)-3((1-adamantyl)methyl)-5-phenyloxazolidin-2-one]
6.00 to 7.30 | – | – | O=C1O[C@@H](C2CCCCC2)CN1CC1C2CC3CC(C2)CC1C3 (stereo partly drawn) [Example 19, (S)-3-((2-adamantyl)methyl)-5-cyclohexyloxazolidin-2-one]
> 7.30 | > 7.30 | – | O=C1O[C@@H](C2CCCCC2)CN1C1C2CC3CC(C2)CC1C3 (stereo partly drawn) [Example 20, (S)-3-(2-adamantyl)-5-cyclohexyloxazolidin-2-one]
